Results published in ChEMBL document CHEMBL3301361, “Experimental in vitro DMPK and physicochemical data on a set of publicly disclosed compounds”.

Experiment: physchem
Settings: octan-1-ol/water, pH 7.4, LogD7.4

| Compound | logD |
| --- | --- |
| c1ccc(-c2n[nH]c(-c3ccncc3)n2)nc1 | 1.48 |
| CC(C)C(NC(=O)Cn1c(-c2ccccc2)ccc(NS(N)(=O)=O)c1=O)C(=O)C(F)(F)F (configuration not stated) | 1.17 |
| CC(=O)NC[C@H]1CN(c2ccc(N3CCN(c4cnccn4)CC3)c(F)c2)C(=O)O1 | 1.49 |
| N=C(N)SCc1ccc(Cl)c(Cl)c1 | 1.28 |
| CC(C)Nc1ccc2cnn(-c3cncc(-n4ccc(CC(=O)O)c4)n3)c2c1 | 1.24 |
| Nc1ccc(S(=O)(=O)N2CCCC2)cc1 | 0.98 |
| O=C([C@@H](O)CO)N1CC=C(c2ccc(N3C[C@H](COc4ccon4)OC3=O)cc2F)CC1 | 1.09 |
| Nc1n[nH]c2ccccc12 | 1 |
| O=C(Oc1ccccc1)N1CCOCC1 | 1.3 |
| Cn1c(-c2ccc(O)nc2)nc2ccccc21 | 1.2 |
| CCn1c(=O)c2c(=O)cc(O)oc2c2ccccc21 | 1.13 |
| CC(C)N(c1nnc(N)s1)C(C)C | 1.49 |
| NC(=O)c1cccnc1Oc1ccccc1 | 1.13 |
| Nc1n[nH]c(Nc2ccccc2)n1 | 1.06 |
| c1ccc(CN(Cc2ccccc2)c2nn[nH]n2)cc1 | 1.37 |
| FC(F)(F)c1nnc2ccc(-n3ccnc3)nn12 | 0.91 |
| NC(=O)Cc1nc(-c2ccccc2)cs1 | 1.3 |
| O=S(=O)(Nc1cccnc1)c1ccc2c(c1)OCCO2 | 1.34 |
| CSc1ncccc1C(=O)Nc1nccs1 | 1.43 |
| CCOC(=O)c1cc2ccc(O)cc2oc1=O | 1.2 |
| CC(=O)Nc1ccccc1C | 1 |
| Nc1[nH]ncc1S(=O)(=O)c1ccccc1 | 1.1 |
| Cc1ccc(O)c(O)c1 | 1.37 |
| Cc1cc(N)n(-c2ccccc2)n1 | 1.25 |
| Cc1nnsc1C(=O)Nc1ccccc1 | 0.97 |
| CC1CN(C(=O)c2nnc3c(-c4ncccn4)cccc3c2N)C1 | 1.21 |
| Nc1ncc(-c2ccc(F)cc2)[nH]1 | 1.39 |

| Compound | logD |
| --- | --- |
| CCCc1c(OCCCCSCC(=O)O)ccc(C(C)=O)c1O | 1.3 |
| NS(=O)(=O)c1nc2ccccc2s1 | 1.35 |
| Cc1nc(CS(=O)(=O)c2ccccc2)cc(N2CCOCC2)n1 | 1.07 |
| CN(C)C(=O)N1CCC(C(=O)NCc2cccs2)CC1 | 1.1 |
| CCNCc1cncc(-c2ccc(F)cc2OC)n1 | 1.18 |
| Cc1noc(C)c1CCC1CCN(S(=O)(=O)CC2(N(O)C=O)CCOCC2)CC1 | 0.9 |
| CC(C)(CS(=O)(=O)N1CCN(c2ccc(F)cc2)CC1)N(O)C=O | 1.07 |
| Cc1nsc(C)c1CCC1CCN(S(=O)(=O)CC2(N(O)C=O)CCOCC2)CC1 | 1.5 |
| C[C@H]1O[C@@H](n2cnc3c(N)nc(Oc4ccccc4)nc32)[C@H](O)[C@@H]1O | 1.05 |
| O=S(=O)(c1ccccc1-c1ccc(CNC2CCOCC2)cc1)N1CCCC1 | 1.4 |
| OC1(c2ccccc2)CNCCc2ccccc21 (configuration not stated) | 1.38 |
| C[C@H]1O[C@@H](n2cnc3c(N)nc(OCC4CC(F)(F)C4(F)F)nc32)[C@H](O)[C@@H]1O (some centres not stated) | 1.42 |
| CN[C@@H](C)C(=O)N[C@H](C(=O)N[C@H]1CCCN(CCc2cccc(OC)c2)C1)C(C)(C)C | 1.47 |
| CN[C@@H](C)C(=O)N[C@H](C(=O)N[C@H]1CCCN(CCc2ccc(OC)cc2)C1)C(C)(C)C | 1.45 |
| Nc1ncnc2sccc12 | 1.19 |
| O=c1cc(N2CCOCC2)oc2cc(O)ccc12 | 1 |
| COc1ccc(-c2nc3c(NCC4CCNCC4)c(Br)cnc3[nH]2)cc1 | 1.36 |
| Cc1nc2ccc(NC(=O)CCNC(N)=O)cc2s1 | 0.9 |
| NC(=O)c1cc2ccccc2nc1N | 1.07 |
| NC(=O)Nc1cc(-c2cccc(F)c2F)sc1C(=O)N[C@H]1CCCNC1 | 1.32 |
| CCCSc1nc(N2CCCCC2C(=O)O)ccc1C(=O)NC1CCCCC1 (configuration not stated) | 1.36 |
| Cc1nc(C)c(-c2ccc3c(c2)CC[C@]32CC[C@@H](c3nnn[nH]3)CC2)nc1C(N)=O | 1.4 |
| Cc1nc(C)c(-c2ccc([C@H]3CC[C@H](CC(=O)O)CC3)c(F)c2)nc1C(N)=O | 1.3 |
| Nc1nc(-c2ccc(O)cc2)cc(=O)[nH]1 | 1.05 |
| CC(NC(=O)C1(N)CCN(c2ncnc3[nH]ccc23)CC1)c1ccccn1 (configuration not stated) | 1.3 |
| CC(NC(=O)C1(N)CCN(c2ncnc3[nH]ccc23)CC1)c1ccc(S(C)(=O)=O)cc1 (configuration not stated) | 1 |
| NC1(C(=O)NC(CCCN2CCCC2)c2ccc(Cl)cc2)CCN(c2ncnc3[nH]ccc23)CC1 (configuration not stated) | 1.3 |

| Compound | logD |
| --- | --- |
| CNCc1cccc(-c2ccc3c(N4CCOCC4)nc(N4C[C@@H](C)O[C@@H](C)C4)nc3n2)c1 | 1.26 |
| NC1=NC(c2ccc(Cl)c(Cl)c2)CC(=O)N1 (configuration not stated) | 1.46 |
| O=[N+]([O-])c1ccc(C=NO)o1 | 1.31 |
| Cn1sc(NC(=O)c2ccccc2)nc1=O | 1.13 |
| CC(C)C(NC(=O)Cn1c(-c2cc(F)cc(F)c2)ncc(N)c1=O)C(=O)C(F)(F)F (configuration not stated) | 1.38 |
| COc1cc2c(Nc3ccc(Cl)cc3F)ncnc2cc1OCC1CCNCC1 | 1.1 |
| NCC(O)(c1ccccc1)c1ccccc1 | 0.9 |
| O=C(NCCCN1CCCCC1)C(c1ccccc1)c1ccccc1 | 1.33 |
| O=S(=O)(Nc1nccs1)c1cc(Cl)ccc1Cl | 1.14 |
| C[C@@H]1CN(C(=O)[C@@](C)(O)C(F)(F)F)[C@@H](C)CN1C(=O)c1ccc(C#N)cc1 | 1.5 |
| O=c1ccc(=O)c2ccccc2[nH]1 | 1.02 |
| C[Si](C)(C)C#Cc1cn(C[C@H]2CN(c3ccc(C4=CCS(=O)(=O)CC4)c(F)c3)C(=O)O2)nn1 | 1.26 |
| CC(C)C[C@H](N)c1nnc(S(=O)(=O)Cc2ccc(F)cc2)o1 | 1.11 |
| CC(C)C(NC(=O)Cn1c(-c2ccc(F)cc2)ncc(N)c1=O)C(=O)C(F)(F)F (configuration not stated) | 1.05 |
| NC(=O)Nc1sc(-c2ccc(OCCN3CCCCC3)cc2)cc1C(N)=O | 1.2 |
| CSc1nc(C(N)=O)c(N)s1 | 1.21 |
| CN[C@H]1CCN(C(=O)c2ccc(Nc3nccc(-c4cnc(C)n4C(C)C)n3)cc2)C1 | 1.22 |
| COC(=O)COc1ccc(O)cc1 | 0.92 |
| COc1ccccc1-c1nnc(N)[nH]1 | 0.91 |
| Cc1ccc(-c2ccc(S(=O)(=O)N3CCC[C@H]3C(=O)N3CC[C@@H](N)C3)cc2F)o1 | 1.2 |
| CNC[C@H](O)c1ccc(Cl)c(C(=O)NCC23CC4CC(CC(C4)C2)C3)c1 | 1.41 |
| Nc1nc(SCc2ccccc2)nc2c1ncn2[C@@H]1O[C@H](CO)[C@@H](O)[C@H]1O | 1.24 |
| COc1ccc2nc3ccccc3c(N)c2c1 | 1 |
| CN(C)c1cccc2c(S(=O)(=O)Nc3cnccn3)cccc12 | 0.9 |
| Nc1ccc2ncccc2c1 | 1.33 |

Further lines, results first:

| logD | Compound |
| --- | --- |
| 1.5 | COc1ccccc1Oc1ccc(N(Cc2cccnc2)S(=O)(=O)CC(F)(F)F)cc1 |
| 1.13 | CC(C)C(NC(=O)Cn1c(-c2ccccc2)ccc(NC(=O)NCc2cc[n+]([O-])cc2)c1=O)C(=O)C(F)(F)F (configuration not stated) |
| 1 | O=c1[nH]n(C(c2ccccn2)C2CC2)c(=O)c2c(O)c3ccc(Cl)cc3nc12 (configuration not stated) |
| 1.1 | O=c1[nH]n(C(c2ccccc2)c2ccncc2)c(=O)c2c(O)c3ccc(Cl)cc3nc12 (configuration not stated) |
| 1.09 | Cc1cccc(C(N)=O)c1NC(=O)c1ccccc1 |
| 1.14 | O=S(=O)(Nc1nnc(-c2ccccc2)s1)c1ccc(Cl)cc1 |
| 1.2 | COc1ccc(Nc2ccccc2C(=O)O)cc1 |
| 1.38 | Cc1cc(CN2Cc3ccccc3C2C(=O)Nc2ccc(Cl)cc2)ccc1OCC(=O)O (configuration not stated) |
| 1.15 | Cc1cc(CN2Cc3cccnc3CC2C(=O)Nc2ccc(Cl)cc2Cl)ccc1OCC(=O)O (configuration not stated) |
| 0.92 | C#Cc1cccc(Nc2nc3cc(C(=O)O)ccc3c3cncnc23)c1 |
| 1.33 | CCC(c1nc2ccsc2c(=O)n1Cc1ccccc1)N(CC1CCNCC1)C(=O)c1ccc(C)cc1 (configuration not stated) |
| 1.39 | CCC(c1nc2ccsc2c(=O)n1Cc1ccccc1)N(CCCN)C(=O)c1ccc(OC)cc1 (configuration not stated) |
| 1.37 | CCC(c1nc2ccoc2c(=O)n1Cc1ccccc1)N(CCCN)C(=O)c1ccc(C)cc1 (configuration not stated) |
| 1.3 | Cc1ccc(NC(=O)c2ccnc(N3CCOCC3)c2)cc1Nc1ccnc(OCCCN(C)C)n1 |
| 1.37 | NC(=O)c1ccc(=O)n(Cc2ccc(F)c(F)c2)c1 |
| 0.92 | Cc1c(Sc2ccc(Cl)cc2)c2c(Cl)nccc2n1CC(=O)O |
| 1.11 | O=c1[nH]c2c(O)ccc([C@@H](O)CNCCc3ccc(CNCCc4ccccc4)cc3)c2s1 |
| 1.5 | O=C(O)Cc1ccc(-c2ccc(NC(=O)c3nnc(Nc4ccccc4F)o3)cc2)cc1 |
| 1.04 | NC(=O)Nc1cc(-c2ccccc2)sc1C(=O)N[C@H]1CCCNC1 |

| logD | Compound |
| --- | --- |
| 1.3 | CN1CCN(c2ccc(Nc3ccnc4ccccc34)cc2)CC1 |
| 1.21 | CS(=O)(=O)c1ccccc1C(=O)NCC(O)CNC1CCN(Cc2ccc(Cl)c(Cl)c2)CC1 (configuration not stated) |
| 1.11 | O=c1c2ccc(Cl)cc2[nH]c2c(O)nn(Cc3ccsc3)c(=O)c12 |
| 1.15 | Cc1ccsc1Cn1[nH]c(=O)c2[nH]c3cc(Cl)ccc3c(=O)c2c1=O |
| 1.4 | CN(C)CCCC(NC(=O)C1(N)CCN(c2ncnc3[nH]ccc23)CC1)c1ccc(Cl)cc1 (configuration not stated) |
| 1.18 | CCOc1ccccc1-c1ccc(-c2nc3ccc(F)cc3c(C(=O)O)c2C)cc1 |
| 1.4 | CN(C)CCNCc1ccc(Nc2ncc3cc(-c4ccncc4)ccc3n2)cc1 |
| 0.93 | O=C(O)COc1ccc(Cl)cc1C1CCCCC1 |
| 1.47 | Cc1ccc(C(=O)N(CCCN)Cc2nc3cc(Cl)ccc3c(=O)n2Cc2ccccc2)cc1 |
| 0.95 | CCNCc1cnc(-c2ccc(C(=O)Nc3ccccc3N)cc2)s1 |
| 1.48 | CN(C)CC(O)COc1ccc(Nc2cc(Nc3ccc(F)cc3F)ncn2)cc1 (configuration not stated) |
| 1.14 | CC(C)C(NC(=O)Cn1c(-c2ccccc2)ccc(NC(=O)Cc2ccccc2C(=O)O)c1=O)C(=O)C(F)(F)F (configuration not stated) |
| 1.48 | CC(C)C(NC(=O)Cn1c(-c2ccccc2)ccc(NC(=O)NCc2ccc[n+]([O-])c2)c1=O)C(=O)C(F)(F)F (configuration not stated) |
| 1.2 | CC(C)C(NC(=O)Cn1c(-c2cccc(C(=O)O)c2)ccc(NC(=O)OCc2ccccc2)c1=O)C(=O)C(F)(F)F (configuration not stated) |
| 1.5 | O=C(Nc1ccc(O)cc1)c1ccc(O)cc1 |
| 1.2 | COc1cc2c(Nc3ccc(F)c(Cl)c3)c(C(N)=O)cnc2cc1OCCCN1CCN(C)CC1 |
| 1.27 | NC(=O)Nc1sc(-c2ccccc2)cc1C(=O)N[C@H]1CCCNC1 |
| 0.9 | O=C(c1cc(Cc2n[nH]c(=O)c3ccccc23)ccc1F)N1CCN(C(=O)C2CCCO2)CC1 (configuration not stated) |
| 1.39 | Cc1cc(N)c2cc(NC(=O)CCC(=O)Nc3ccc4nc(C)cc(N)c4c3)ccc2n1 |
